Results reported in paper PMC9737664, “Human Milk Oligosaccharide 2′-Fucosyllactose Inhibits Ligand Binding to C-Type Lectin DC-SIGN but Not to Langerin” (International Journal of Molecular Sciences, 2022).

Molecular target: T1, DC-SIGN (Homo sapiens, UniProt Q9NNX6)
T1 construct: gene CD209; DC-SIGN-Fc: extracellular domain fused to the Fc portion of human IgG1
T1 sequence (Q9NNX6 59-404 limits assumed): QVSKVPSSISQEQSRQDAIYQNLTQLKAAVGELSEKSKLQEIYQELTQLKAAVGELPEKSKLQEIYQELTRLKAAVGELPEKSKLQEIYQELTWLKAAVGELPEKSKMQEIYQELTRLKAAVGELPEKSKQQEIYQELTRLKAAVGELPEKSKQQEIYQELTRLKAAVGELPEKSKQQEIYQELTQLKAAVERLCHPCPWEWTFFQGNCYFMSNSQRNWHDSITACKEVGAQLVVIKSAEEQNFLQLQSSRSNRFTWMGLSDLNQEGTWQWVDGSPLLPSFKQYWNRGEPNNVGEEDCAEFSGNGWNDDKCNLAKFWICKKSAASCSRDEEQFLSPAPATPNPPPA
Test: Solid-phase competition ELISA of DC-SIGN-Fc against PAA-fucose and PAA-Le^b; also Le^b bead competition on DC-SIGN expressing cells ([…])
Type: binding

Solid-phase competition ELISA of DC-SIGN-Fc against PAA-fucose and PAA-Le^b; als: ~ 2 mM
Compound: C[C@@H]1O[C@@H](O[C@H]2[C@H](O[C@H]3[C@H](O)[C@@H](O)C(O)O[C@@H]3CO)O[C@H](CO)[C@H](O)[C@@H]2O)[C@@H](O)[C@H](O)[C@@H]1O (stereo partly shown) [2′-FL, 2′-Fucosyllactose]
